Several values for one entry are separate records, joined by “and”; a condition that tells them apart may be missing. Equal entries are not always repeated.
Legend:
10T1/2 cells [1] = test: Induction of a myogenic phenotype (myotube formation) in 10T1/2 cells; type: cell-based, mouse; design: key to Muscle Formation: + representing minimal muscle formation; scored for muscle cells 9-10 days later as + to +++; +++ representing maximal muscle formation
Experimental: Cells were plated (3×10^5 cells/100-mm dish) and treated 24 hours later with the indicated concentrations of compounds. The medium was either changed 24 hours or 48 hours after drug treatment. Myotube formation was assayed in 10T1/2 cells as previously described (Constantinides et al., Nature 267:364-366, 1977). […] The ability of Zebularine to cause 10T1/2 cells to undergo the myogenic switch was therefore tested (FIG. 7).

p3 locus = test: Ms-SNuPE quantitation of DNA methylation in 10T1/2 cells; type: cell-based, mouse; details: 0.3 μM, 24 hours, control 86
Experimental: (§1) The average methylation at defined CpG sites was quantitated using a Ms-SNuPE assay, as described by Gonzalgo and Jones (Nucleic Acids Res. 25:2529-2531, 1997) and U.S. Pat. No. 6,251,594. Briefly, genomic DNA (˜4 μg) was digested overnight with 4 units of EcoRI (Boehringer Mannheim) (p16 promoter/exon 1 and p16 exon 2; FIG. 9A) or with 4 units of RsaI (Boehringer Mannheim) (P3; FIG. 9B) to cut outside the region of interest.
(§2) After standard treatment with sodium bisulfite, a PCR product of the region was generated as template for top-strand methylation analysis. The sequences of the primers used for bisulfite-treated DNA amplification were as follows: […]
P3: 95° C. for 2 minutes, 95° C. for 1 minute, 50° C. for 50 seconds, and 72° C. for 1 minute for 40 cycles, with a final extension at 72° C. for 10 minutes.
(§3) Duplicates of 4 μl of template were then added to 6 μl of mixture consisting of 1× PCR buffer, 1 μM final concentration primers, 1 μCi of [^32P]dCTP or dTTP, and 1 unit 1:1 Taq/TaqStart antibody (Clontech, Palo Alto, Calif.). Single nucleotide extension involved incubation at 95° C. for 1 minute, then 50° C. for 2 minutes, and finally 72° C. for 1 minute (p16 promoter/exon1 and P16 exon 2) and 95° C. for 1 minute, then 46° C. for 30 seconds, and finally 72° C. for 20 seconds (P3). The sequences for SNuPE primers were as follows: […]
(§4) After briefly spinning down the tubes, 4 μl of stop solution were added to the 10-μl reaction volume, and the samples were boiled for 5 minutes at 95° C. before loading 1.5 μl onto a 15% denaturing polyacrylamide gel (7 M urea). The gel was run at 90 W for 1.5 hours and then dried at 80° C. for 40 minutes. The gel was exposed to a phosphorimaging cassette for quantitation of the ratio of [^32P]dCTP versus [^32P]dTTP incorporation, and the quantitation of the percent methylation was averaged from three separate CpG sites. The gel was then exposed to BioMax MR film (Kodak) to record experimental results.

10T1/2 cells [2] = test: Colony-formation assay (plating efficiency) in 10T1/2 cells; type: cell-based, mouse
Experimental: (§5) The percentage cell survival was assessed by dividing the mean colony number on the treated plates divided by the mean colony number on the untreated plates ×100.

[3] = tested on: p16 gene expression in T24 cells; test: RT-PCR analysis of p16 expression in T24 cells; type: cell-based, human; details: 3 μM
Experimental: The T24 cell line was obtained from the American Type Culture Collection (Rockville, Md.) and cultured in DMEM supplemented with 10% heat-inactivated fetal calf serum and 100 U/ml penicillin-streptomycin. Cultures were grown in a humidified incubator at 37° C. in an atmosphere of 5% CO2 in air.
Cells were plated (3×10^5 cells/100-mm dish) and treated 24 hours later with the indicated concentrations of compounds. The medium was either changed 24 hours or 48 hours after drug treatment.
DNA and RNA were isolated three days after treatment using the NucleoBond RNA/DNA Midi Kit (Clontech Laboratories, Inc., Palo Alto, Calif.).
Total RNA (˜10 μg) was reverse-transcribed using the following reagents: 100 units RNAsin (Promega Corp., Madison, Wis.), 0.1 M DTT (Life Technologies, Inc.), 1000 units of MMLV-RT (Life Technologies, Inc.), 1 mM deoxynucleotide triphosphates (Boehringer Mannheim, Germany), 75 μg/ml BSA, 1× MMLV-RT buffer (Life Technologies, Inc.), and 0.025 ODU Random Hexamers (Amersham-Pharmacia Biotech, Piscataway, N.J.). The reaction mixture was incubated for 10 minutes at 25° C., 45 minutes at 42° C., 3 minutes at 90° C., and chilled for 5 minutes at 4° C., during which time 1.25 μl of MMLV-RT (200 U/μl) were added and the sample then incubated for 45 minutes at 42° C., 10 minutes at 75° C., and stored at −20° C.
cDNA was amplified with primers specific for either p16 or GAPDH. Briefly, PCR reactions were performed in 25-μl volumes at 94° C. for 3 minutes, 28 cycles at 94° C. for 1 minute, 56° C. for 30 seconds, 72° C. for 40 seconds, and a final extension step at 72° C. for 5 min (p16 amplification), and 94° C. for 1 minute, 19 cycles at 94° C. for 1 minute, 58° C. for 30 seconds, 72° C. for 45 seconds, and a final extension step at 72° C. for 2 minutes (GAPDH amplification).
PCR amplifications were performed with cDNA template concentration equivalent to 100 ng of RNA in 10% DMSO. All reactions were analyzed in the linear range of amplification. PCR products were resolved on 2% agarose gels and subsequently transferred to a nylon membrane (Zetaprobe; Bio-Rad, Richmond, Calif.) under alkaline conditions. All blots were hybridized with a γ-^32P-labeled internal oligonucleotide probe, using protocols previously described (Xiong and Laird, Nuc. Acids Res. 25:2532-2534, 1997).
Since 5-Aza-CdR has been shown previously to induce p16 expression in a dose-dependent manner (Bender et al., Cancer Res. 58:95-101, 1998), the two ribonucleoside analogs 5-Aza-CR and Zeb were examined to determine their abilities to induce p16 expression (FIG. 8). Because Zeb is stable in aqueous solution, the effect of prolonging Zeb treatment on p16 expression was tested by treating these cells with different concentrations of Zeb for either 24 hours or 48 hours. RT-PCR was then performed to determine whether p16 gene was induced by drug treatment.

p16 promoter = test: Ms-SNuPE quantitation of DNA methylation in T24 cells, p16 promoter; type: cell-based, human; details: 3 μM, 24 hrs; control 96
Experimental: as §1, §2
p16 promoter/exon 1: 94° C. for 3 minutes, 94° C. for 45 seconds, 67° C. for 45 seconds, and 72° C. for 45 seconds for 40 cycles, with a final extension step at 72° C. for 10 minutes.
as §3, §4

p16 exon 2 = test: Ms-SNuPE quantitation of DNA methylation in T24 cells, p16 exon 2; type: cell-based, human; details: 3 μM, 24 hrs
Experimental: as §1, §2
p16 exon 2: 94° C. for 3 minutes, 94° C. for 1 minute, 62° C. for 45 seconds, and 72° C. for 45 seconds for 40 cycles, with a final extension step at 72° C. for 10 minutes.
as §3, §4

T24 cells = test: Colony-formation assay (decrease in plating efficiency) in T24 cells; type: cell-based, human; details: 3 μM, 24 hrs
Experimental: as §5

[4] = tested on: DNA methylation of the am^RIP and ψ63 sequences; test: Southern blot analysis of DNA methylation in N. crassa (Dpn II vs Sau3AI digests); type: cell-based, Neurospora crassa; details: 12 and 24 μM 5-AC; 0.33 and 3.3 μM TSA; 20, 39, 78, 160 and 310 μM Zebularine
Experimental: DNA was digested with Dpn II (D) or Sau3AI (S), fractionated by gel electrophoresis, transferred to a membrane and probed for am (FIG. 4A) or ψ63 (FIG. 4B) sequences. Dpn II and Sau3AI both recognize the sequence GATC, but Sau3AI fails to cleave if the C residue is methylated. Thus, differences between S and D lanes are indicative of DNA methylation.
The ramp symbols at the top of the figure represent increasing concentrations of drug. Drug concentrations were 12 and 24 μM 5-AC; 0.33 and 3.3 μM TSA; and 20, 39, 78, 160 and 310 μM Zebularine. The positions of selected size standards (kb) are indicated.
Southern hybridizations were performed on DNA samples (−1 μg) isolated from liquid cultures inoculated with 7×10^4 conidia/ml. DNA was digested with Dpn II (D) or Sau3AI (S), fractionated by gel electrophoresis, transferred to a nylon membrane and probed for am^RIP (FIG. 4A) or ψ63 (FIG. 4B) sequences. The restriction endonucleases Dpn II and-Sau3AI both recognize the sequence GATC, but Sau3AI fails to cleave if the C residue is methylated. Drug concentrations were […] 5-AC, 0.33 and 3.3 μM TSA, and […] Zebularine.
The positions of selected size standards (kb) and the origin (ori) are indicated. […] Differences between S and D lanes are indicative of DNA methylation.

SMILES | Muscle Formation (10T1/2 cells [1]; 0.3 μM, 24 hours treatment, scored 9-10 days later) | muscle formation (micrographs, in words) (10T1/2 cells [1]; 10T1/2 cells, approximately 9-10 days after drug treatment) | % Methylation (p3 locus) | decrease in plating deficiency (cytotoxicity) (10T1/2 cells [2]; 0.3 μM, 10T1/2 cells) [%] | Ave. Plating Efficiency (%) (10T1/2 cells [2]; 0.3 μM, 250 cells, stained after 14-16 days, control 22) | cell death observed (10T1/2 cells [2]; 10T1/2 cells, 0.3 μM 5-Aza-CdR, 3 μM 5-Aza-CR, 30 μM Zebularine) | p16 expression (RT-PCR) [3] | p16 Promoter Methylation (%) (p16 promoter) | Relative p16 Exon 2 De-methylation (%) (p16 exon 2) | p16 Exon 2 Methylation (%) (p16 exon 2; control 96) | Toxicity (%) (decrease in plating efficiency) (T24 cells) | effect on DNA methylation (Southern blot) [4]
Nc1ncn([C@H]2C[C@H](O)[C@@H](CO)O2)c(=O)n1 [5-Aza-CdR, 5-aza-2′-deoxycytidine] | +++ | formed multinucleated myotubes | 54% and 54 +/− 5% | 74 | 5 | appreciable cell death | robust expression of p16 | 52% and 52 +/− 5% | 47 +/− 1% | 51 +/− 1% | 75 | –
CC(/C=C/C(=O)NO)=C\[C@@H](C)C(=O)c1ccc(N(C)C)cc1 [TSA, trichostatin A] | – | – | – | – | – | – | – | – | – | – | – | selective inhibition of methylation

From patent publication US8207142B2, “Inhibitor of DNA methylation” (priority 2001, dated 2012)
